Test results published in patent US20110081428A1, “Use of thioflavin-like compounds to increase life span and/or health span” (priority 2009, published 2011).

Legend:
Format in all cases: in vivo, Caenorhabditis elegans
[1] = system: SKN-1 fusion protein [CF2189 (skn-1::GFP)]; assay: SKN-1::GFP localization; settings: ThT treatment
Procedure: For fluorescent microscopy, TJ356 zIs356 IV [daf-16::daf-16-gfp+rol-6] or CF2189 Is001(skn-1::gfp+rol-6) were paralyzed with 1 mM levamisole mounted on 1% agarose pads and imaged using Olympus BX51 (60× objective) and HCImage software (Hamamatsu). For immunofluorescence, N2, […], CB1157 unc-54(e1157) or CL4176 dvIs27 [myo-3::Aβ(3 to 42)-let 3′UTR(pAF29); pRF4 (rol-6(su1006))] worms were treated for 24-36 h with or without 50 μM ThT at 25° C. After this period the worms were collected, rinsed, and fixed in 4% paraformaldehyde overnight. […] Paramyosin and perlecans were detected with primary monoclonal antibodies 5-23 and MH3 (developed by Henry Epstein and Robert H. Waterston and obtained from the Developmental Studies Hybridoma Bank developed under the auspices of the NICHD and maintained by The University of Iowa, Department of Biology, Iowa City, Iowa 52242) and AlexaFluor 633 goat anti-mouse (Molecular Probes) as secondary antibody. Soluble oligomers and Aβ peptide were detected with anti polyclonal All (Invitrogen) and 6E10 monoclonal (Covance) primary antibodies, respectively, with AlexaFluor 568 goat anti-rabbit and AlexaFluor 488 goat anti-mouse (Molecular Probes) as secondary antibodies. Images were processed and quantified by using Image Analyst MK II (Novato, Calif.).

hsp-6 RNA = assay: Real time quantitative PCR, hsp-6; settings: 50 μM ThT, 3 and 6 days of treatment
Procedure: (§1) Twelve single adults from control or 50 μM ThT populations were picked after 3, 6 and 12 days of treatment into 5 μl of distilled water and flash frozen until extraction. Individual worms were extracted using the RNeasy Micro Kit, TissueLyser and QIAcube (Qiagen). Using the manufacturer's standard Animal Tissue protocol, each sample was homogenized in buffer RLT/Bme (Qiagen) on the TissueLyser (6 min total at 20 Hz). Samples, reagents and columns were then loaded into the QIAcube robot, and processed using the “RNeasy Micro—Animal tissues and cells—DNase digest” program. Each sample was then eluted in 14 μl of Nuclease-free water. cDNA templates for the Real Time PCR reactions were made using a combination of Message Sensor RT kit (Ambion's) and TaqMan PreAmp Master Mix (Applied Biosystems). The entire worm sample was added to the RT reaction and reversed transcribed at 50° C. for 20 min, using Message Sensor's “Two Step RT-PCR Protocol” (sample RT's were randomized). Then 2.5 μl of the cDNA sample was pre-amplified with a “4×Multiplex Primer Mix” for 14 cycles using TaqMan PreAmp master mix and protocol (ABI). Two modifications were made to ABI's protocol: 1. the reaction volume was reduced to 10 μl and 2. after pre-amplification, each cDNA sample was diluted 1:5 with 1XTE Buffer (Promega). cDNA samples were stored at −20° C. until needed. […]

chn-1 RNA = assay: Real time quantitative PCR, chn-1; settings: 50 μM ThT, 3 and 6 days of treatment
Procedure: as §1

[2] = system: HE250 [unc-52(e669su250)II]; assay: RNAi knockdown of proteostasis factors with paralysis scoring; settings: HE250, 50 μM ThT
Procedure: RNAi bacterial strains expressing double-stranded RNA that inactivates specified genes were cultured and utilized as previously described. (Timmons, L., Court, D. L. & Fire, A. Ingestion of bacterially expressed dsRNAs can produce specific and potent genetic interference in Caenorhabditis elegans. Gene 263, 103-112 (2001).) Briefly, eggs isolated from synchronous populations of unc-52(e669su250) cultures were placed on fresh RNAi plates and allowed to grow at 15° C.; 3 days later, L4 molt animals were transferred to new plates seeded with the same bacteria in presence or absence of ThT and switched to 25° C. The cultures were scored for paralysis after 48 h of treatment as described above. In all cases, 1 mM isopropyl-beta-D-thiogalactopyranoside (IPTG) was used for induction of double stranded RNA. In all the cases the identity of the clones was confirmed by sequencing.

What does the source list for Cc1ccc2c(c1)sc(-c1ccc(N(C)C)cc1)[n+]2C.[Cl-] [ThT, 4-(3,6-dimethyl-1,3-benzothiazol-3-ium-2-yl)-N,N-dimethylaniline chloride]?
SKN-1::GFP nuclear accumulation [1]: no nuclear accumulation; hsp-6 RNA levels (hsp-6 RNA): up-regulated; chn-1 RNA levels (chn-1 RNA): up-regulated; ThT protection from paralysis with RNAi of proteasome and autophagy genes ([2]; RNAi aip-1, atg-9, vps-34): required for the beneficial effects of ThT; ThT protection from paralysis with RNAi of acute stress genes ([2]; RNAi hsp-16.2, hsp-16.41): decreased; ThT suppression of paralysis with daf-16 RNAi ([2]; daf-16 (RNAi)): potentiated; ThT effect on paralysis with lmp-2 RNAi ([2]; lmp-2(RNAi)): significantly improved the ThT effect on paralysis; ThT effect on paralysis with skn-1 RNAi ([2]; skn-1 (RNAi)): required for ThT effect on the paralysis phenotype
